Test results published in patent US20080096811A1, “[…] VPAC2 RECEPTOR PEPTIDE AGONISTS” (Eli Lilly and Company, published 2008).
*1 amine or outer side, *2 acyl side, *3 side chain or, on linkers, in order; H or OH if unused. Where a SMILES comes first, the peptide text is derived from it. Where no end group is shown, it is not given here. Side-chain parts run from the residue outwards. The star is where a group is joined. γGlu = O=C(O)[C@H](CCC(=O)[*:2])N[*:1]; Palmitoyl = CCCCCCCCCCCCCCCC(=O)*; Hexanoyl = CCCCCC(=O)*; Propionyl = CCC(=O)*

T1: human VPAC2 (Homo sapiens, UniProt P41587)
T1 construct: expressed in transfected cells
T1 sequence (P41587 24-438): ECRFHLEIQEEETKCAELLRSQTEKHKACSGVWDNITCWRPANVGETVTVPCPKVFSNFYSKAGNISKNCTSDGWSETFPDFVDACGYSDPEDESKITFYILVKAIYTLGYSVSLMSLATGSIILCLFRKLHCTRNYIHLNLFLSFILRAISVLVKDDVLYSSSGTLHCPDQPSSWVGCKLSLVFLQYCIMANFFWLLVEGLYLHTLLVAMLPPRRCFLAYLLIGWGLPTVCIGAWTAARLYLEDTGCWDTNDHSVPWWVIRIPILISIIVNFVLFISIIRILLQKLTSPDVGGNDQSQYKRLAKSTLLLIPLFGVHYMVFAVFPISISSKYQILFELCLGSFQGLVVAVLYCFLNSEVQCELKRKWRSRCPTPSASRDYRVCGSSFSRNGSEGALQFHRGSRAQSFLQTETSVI

T2: human VPAC1 (Homo sapiens, UniProt P32241)
T2 sequence (P32241 31-457): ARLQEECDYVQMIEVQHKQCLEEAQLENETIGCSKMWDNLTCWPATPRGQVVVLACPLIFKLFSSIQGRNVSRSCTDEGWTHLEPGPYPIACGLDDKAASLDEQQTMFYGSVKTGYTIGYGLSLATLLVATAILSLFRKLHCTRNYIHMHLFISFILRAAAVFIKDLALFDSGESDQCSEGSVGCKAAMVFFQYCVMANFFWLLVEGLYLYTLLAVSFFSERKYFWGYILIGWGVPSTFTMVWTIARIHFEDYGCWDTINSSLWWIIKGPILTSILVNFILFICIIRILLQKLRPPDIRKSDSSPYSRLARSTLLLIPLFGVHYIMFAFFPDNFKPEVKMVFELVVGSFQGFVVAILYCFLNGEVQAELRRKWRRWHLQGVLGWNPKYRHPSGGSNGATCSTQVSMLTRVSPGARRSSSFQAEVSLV

T3: human VPAC2 receptor (human) (UniProt P41587)
T3 sequence: T1 sequence (P41587 24-438)

B1: P96 (peptide)
peptide: HSDAVFTDNYTRLRKQAAAKKYLQSIKNSRTSPPP-NH2
B2: P95 (peptide)
peptide: Propionyl-HSDAVFTDNYTRLRKQVAAKKYLQSIKNSRTSPPPK([γGlu-Palmitoyl])-NH2
SMILES: CCCCCCCCCCCCCCCC(=O)N[C@@H](CCC(=O)NCCCC[C@H](NC(=O)[C@@H]1CCCN1C(=O)[C@@H]1CCCN1C(=O)[C@@H]1CCCN1C(=O)[C@H](CO)NC(=O)[C@@H](NC(=O)[C@H](CCCNC(=N)N)NC(=O)[C@H](CO)NC(=O)[C@H](CC(N)=O)NC(=O)[C@H](CCCCN)NC(=O)[C@@H](NC(=O)[C@H](CO)NC(=O)[C@H](CCC(N)=O)NC(=O)[C@H](CC(C)C)NC(=O)[C@H](Cc1ccc(O)cc1)NC(=O)[C@H](CCCCN)NC(=O)[C@H](CCCCN)NC(=O)[C@H](C)NC(=O)[C@H](C)NC(=O)[C@@H](NC(=O)[C@H](CCC(N)=O)NC(=O)[C@H](CCCCN)NC(=O)[C@H](CCCNC(=N)N)NC(=O)[C@H](CC(C)C)NC(=O)[C@H](CCCNC(=N)N)NC(=O)[C@@H](NC(=O)[C@H](Cc1ccc(O)cc1)NC(=O)[C@H](CC(N)=O)NC(=O)[C@H](CC(=O)O)NC(=O)[C@@H](NC(=O)[C@H](Cc1ccccc1)NC(=O)[C@@H](NC(=O)[C@H](C)NC(=O)[C@H](CC(=O)O)NC(=O)[C@H](CO)NC(=O)[C@H](Cc1c[nH]cn1)NC(=O)CC)C(C)C)[C@@H](C)O)[C@@H](C)O)C(C)C)[C@@H](C)CC)[C@@H](C)O)C(N)=O)C(=O)O

Legend:
human VPAC2 [1] = molecular target: T1, human VPAC2; experiment: Alpha screen cAMP in vitro potency, human VPAC2; format: cell-based
Method: Alpha screen: Cells are washed in the culture flask once with PBS. Then, the cells are rinsed with enzyme free dissociation buffer. The dissociated cells are removed. The cells are then spun down and washed in stimulation buffer. For each data point, 50,000 cells suspended in stimulation buffer are used. To this buffer, Alpha screen acceptor beads are added along with the stimuli. This mixture is incubated for 60 minutes. Lysis buffer and Alpha screen donor beads are added and are incubated for 60 to 120 minutes. The Alpha screen signal (indicative of intracellular cAMP levels) is read in a suitable instrument (e.g. AlphaQuest from Perlin-Elmer). Steps including Alpha screen donor and acceptor beads are performed in reduced light.

human VPAC2 [2] = molecular target: T1, human VPAC2; experiment: Filter binding assay, human VPAC2 membranes, 125I-labeled VIP tracer
Method: (§1) For this assay, the solutions and equipment include:
(§2) Presoak solution: 0.5% Polyethyleneamine in Aqua dest.
(§3) Buffer for flushing filter plates: 25 mM […] pH 7.4
(§4) Blocking buffer: 25 mM HEPES pH 7.4; 0.2% protease free BSA
(§5) Assay buffer: 25 mM HEPES pH 7.4; 0.5% protease free BSA
(§6) Dilution and assay plate: PS-Microplate, U form
(§7) Filtration Plate Multiscreen FB Opaque Plate; […] Type B Glasfiber filter
(§8) In order to prepare the filter plates, aspirate the presoak solution by vacuum filtration. Flush the plates twice with 200 μL flush buffer. Add 200 μL blocking buffer to the filter plate. The filter plate is then incubated […] for 1 hour at room temperature.
(§9) Fill the assay plate with 25 μL assay buffer, 25 μL membranes (2.5 μg) suspended in assay buffer, 25 μL compound (agonist) in assay buffer, and 25 μL tracer (about 40000 cpm) in assay buffer. Incubate the filled plate for 1 hour with shaking.
(§10) Conduct the transfer from assay plate to filter plate. Aspirate the blocking buffer by vacuum filtration and wash two times with flush buffer. Transfer 90 μL from the assay plate to the filter plate. Aspirate the 90 μL transferred from assay plate and wash three times with 200 μL flush buffer. Remove the plastic support. Dry for 1 hour at 60° C. Add 30 μL Microscint. Perform the count.

human PAC1 = human PAC1 (Homo sapiens, UniProt P41586); experiment: biochemical
Chain of human PAC1 (P41586 21-468): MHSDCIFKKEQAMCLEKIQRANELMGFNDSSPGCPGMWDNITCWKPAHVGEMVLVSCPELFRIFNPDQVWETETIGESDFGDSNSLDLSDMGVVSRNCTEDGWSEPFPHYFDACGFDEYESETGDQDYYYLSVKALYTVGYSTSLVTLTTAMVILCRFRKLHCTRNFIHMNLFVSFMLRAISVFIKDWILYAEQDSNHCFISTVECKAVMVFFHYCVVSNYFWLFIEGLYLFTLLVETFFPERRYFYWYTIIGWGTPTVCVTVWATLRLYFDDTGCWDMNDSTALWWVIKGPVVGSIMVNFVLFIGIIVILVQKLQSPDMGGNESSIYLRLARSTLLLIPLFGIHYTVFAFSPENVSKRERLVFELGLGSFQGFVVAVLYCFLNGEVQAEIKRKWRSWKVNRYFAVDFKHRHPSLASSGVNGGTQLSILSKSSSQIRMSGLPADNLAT
Method: as §1, §2, §3, §4, §5, §6, §7, §8, §9, §10

human VPAC1 = molecular target: T2, human VPAC1; experiment: Filter binding assay, human VPAC1 membranes, 125I-labeled VIP tracer; design: expressed in transfected cells
Method: as §1, §2, §3, §4, §5, §6, §7, §8, §9, §10

[3] = molecular target: T3, human VPAC2 receptor (human)

EC50 (nM) for cAMP generation, Alpha Screen [3] | EC50 (nM) for cAMP generation, DiscoveRx [3] | Molecule | EC50 (human VPAC2 [1]) | IC50 (human VPAC2 [2]) | IC50 (human PAC1) | IC50 (human VPAC1)
– | – | CC[C@H](C)[C@H](NC(=O)[C@H](CO)NC(=O)[C@H](CCC(N)=O)NC(=O)[C@H](CC(C)C)NC(=O)[C@H](Cc1ccc(O)cc1)NC(=O)[C@H](CCCCN)NC(=O)[C@H](CCCCN)NC(=O)[C@H](C)NC(=O)[C@H](C)NC(=O)[C@@H](NC(=O)[C@H](CCC(N)=O)NC(=O)[C@H](CCCCN)NC(=O)[C@H](CCCNC(=N)N)NC(=O)[C@H](CC(C)C)NC(=O)[C@H](CCCNC(=N)N)NC(=O)[C@@H](NC(=O)[C@H](Cc1ccc(O)cc1)NC(=O)[C@H](CC(N)=O)NC(=O)[C@H](CC(=O)O)NC(=O)[C@@H](NC(=O)[C@H](Cc1ccccc1)NC(=O)[C@@H](NC(=O)[C@H](C)NC(=O)[C@H](CC(=O)O)NC(=O)[C@H](CO)NC(=O)[C@@H](N)Cc1c[nH]cn1)C(C)C)[C@@H](C)O)[C@@H](C)O)C(C)C)C(=O)N[C@@H](CCCCN)C(=O)N[C@@H](CC(N)=O)C(=O)N[C@@H](CO)C(=O)N[C@@H](CCCNC(=N)N)C(=O)N[C@H](C(=O)N[C@@H](CO)C(=O)N1CCC[C@H]1C(=O)N1CCC[C@H]1C(=O)N1CCC[C@H]1C(=O)N[C@@H](CCCCNC(=O)[C@@H](N)Cc1c[nH]c2ccccc12)C(N)=O)[C@@H](C)O [Agonist P128] (H-HSDAVFTDNYTRLRKQVAAKKYLQSIKNSRTSPPPK(Trp)-NH2) | 1.78 nM | 2.25 nM | 104 nM | 110 nM
– | – | CC[C@H](C)[C@H](NC(=O)[C@H](CO)NC(=O)[C@H](CC(N)=O)NC(=O)[C@H](CC(C)C)NC(=O)[C@H](Cc1ccc(O)cc1)NC(=O)[C@H](CCCCN)NC(=O)[C@H](CCCCN)NC(=O)[C@@H](NC(=O)[C@H](C)NC(=O)[C@H](CCSC)NC(=O)[C@H](CCC(N)=O)NC(=O)[C@H](CCCCN)NC(=O)[C@H](CCCN=C(N)N)NC(=O)[C@H](CC(C)C)NC(=O)[C@H](CCCN=C(N)N)NC(=O)[C@@H](NC(=O)[C@H](Cc1ccc(O)cc1)NC(=O)[C@H](CC(N)=O)NC(=O)[C@H](CC(=O)O)NC(=O)[C@@H](NC(=O)[C@H](Cc1ccccc1)NC(=O)[C@@H](NC(=O)[C@H](C)NC(=O)[C@H](CC(=O)O)NC(=O)[C@H](CO)NC(=O)[C@@H](N)Cc1cnc[nH]1)C(C)C)[C@@H](C)O)[C@@H](C)O)C(C)C)C(=O)N[C@@H](CC(C)C)C(=O)N[C@@H](CC(N)=O)C(=O)O [VIP, reference compound] | – | – | > 25000 nM | –
– | – | CCCCCC(=O)N[C@@H](Cc1c[nH]cn1)C(=O)N[C@@H](CO)C(=O)N[C@@H](CC(=O)O)C(=O)N[C@@H](C)C(=O)N[C@H](C(=O)N[C@@H](Cc1ccccc1)C(=O)N[C@H](C(=O)N[C@@H](CC(=O)O)C(=O)N[C@@H](CC(N)=O)C(=O)N[C@@H](Cc1ccc(O)cc1)C(=O)N[C@H](C(=O)N[C@@H](CCCNC(=N)N)C(=O)N[C@@H](CC(C)C)C(=O)N[C@@H](CCCNC(=N)N)C(=O)N[C@@H](CCCCN)C(=O)N[C@@H](C)C(=O)N[C@@H](C)C(=O)N[C@@H](C)C(=O)N[C@@H](C)C(=O)N[C@@H](CCCCN)C(=O)N[C@@H](CCCCN)C(=O)N[C@@H](Cc1ccc(O)cc1)C(=O)N[C@@H](CC(C)C)C(=O)N[C@@H](CCC(N)=O)C(=O)N[C@@H](CO)C(=O)N[C@H](C(=O)N[C@@H](CCCCN)C(=O)N[C@@H](CC(N)=O)C(=O)N[C@@H](CO)C(=O)N[C@@H](CCCNC(=N)N)C(=O)N[C@H](C(=O)N[C@@H](CO)C(=O)N1CCC[C@H]1C(=O)N1CCC[C@H]1C(=O)N1CCC[C@H]1C(N)=O)[C@@H](C)O)[C@@H](C)CC)[C@@H](C)O)[C@@H](C)O)C(C)C [Agonist P178] (Hexanoyl-HSDAVFTDNYTRLRKAAAAKKYLQSIKNSRTSPPP-NH2) | 0.12 nM | 0.16 nM | – | 35.7 nM
– | – | HSDAVFTDNYTRLRKQAAAKKYLQSIKNSRTSPPP-NH2 [Agonist P96] | 0.9 nM | 0.58 nM | 151 nM | 89.3 nM
– | – | CCCCCC(=O)N[C@@H](Cc1c[nH]cn1)C(=O)N[C@@H](CO)C(=O)N[C@@H](CC(=O)O)C(=O)N[C@@H](C)C(=O)N[C@H](C(=O)N[C@@H](Cc1ccccc1)C(=O)N[C@H](C(=O)N[C@@H](CC(=O)O)C(=O)N[C@@H](CC(N)=O)C(=O)N[C@@H](Cc1ccc(O)cc1)C(=O)N[C@H](C(=O)N[C@@H](CCCNC(=N)N)C(=O)N[C@@H](CC(C)C)C(=O)N[C@@H](CCCNC(=N)N)C(=O)N[C@@H](CCCCN)C(=O)N[C@@H](CCC(N)=O)C(=O)N[C@H](C(=O)N[C@@H](C)C(=O)N[C@@H](C)C(=O)N[C@@H](CCCCN)C(=O)N[C@@H](CCCCN)C(=O)N[C@@H](Cc1ccc(O)cc1)C(=O)N[C@@H](CC(C)C)C(=O)N[C@@H](CCC(N)=O)C(=O)N[C@@H](CO)C(=O)N[C@H](C(=O)N[C@@H](CCCCN)C(=O)N[C@@H](CC(N)=O)C(=O)N[C@@H](CO)C(=O)N[C@@H](CCCNC(=N)N)C(=O)N[C@H](C(=O)N[C@@H](CO)C(=O)N1CCC[C@H]1C(=O)N1CCC[C@H]1C(=O)N1CCC[C@H]1C(=O)N[C@@H](CCCCNC(=O)[C@@H](N)Cc1c[nH]c2ccccc12)C(N)=O)[C@@H](C)O)[C@@H](C)CC)C(C)C)[C@@H](C)O)[C@@H](C)O)C(C)C [Agonist P118] (Hexanoyl-HSDAVFTDNYTRLRKQVAAKKYLQSIKNSRTSPPPK(Trp)-NH2) | – | 0.25 nM | 125 nM | 76.3 nM
0.9 nM | – | B1 | – | – | – | –
0.24 nM | 0.45 nM | B2 | – | – | – | –
